Reference: patent publication US11649245B2, “Cyclopropylamine compound as LSD1 inhibitor and use thereof” (HELIOEAST PHARMACEUTICAL CO., LTD., priority 2018, dated 2023)
Structures can show the parent of a compound that is named as a salt.

How the values were obtained:
[1] = tested on: HL60 cells; test: Antiproliferation activity on HL60 cells (CellTiter-Glo, 6 days); format: cell-based; details: incubated for 6 days
Excerpt: Experimental purpose: to detect the antiproliferation activity of the compound to be tested on HL60 cells.
Experimental materials: RPMI-1640 culture medium, fetal bovine serum, penicillin/streptomycin antibiotics purchased from Wisent. CellTiter-Glo (chemiluminescent cell viability assay reagent) reagents purchased from Promega. HL60 cell line purchased from Nanjing Cobioer Co., Ltd. Nivo multi-label reader (PerkinElmer).
Experimental method: HL60 cells were planted in a white 384-well plate, 40 μL of cell suspension per well, 600 HL60 cells were contained therein. The cell plate was placed in a carbon dioxide incubator for overnight culture. The compounds to be tested were diluted 5-fold with a pipet until the 10th concentration, i.e., diluted from 2 mM to 1.024 nM, double duplicate well experiment was set. 78 μL of the culture medium was added to an intermediate plate, and then 2 μL per well of the serially diluted compounds were transferred to the corresponding positions on the intermediate plate, after mixing, 10 μL per well was transferred to the cell plate. The cell plate was incubated in a carbon dioxide incubator for 6 days. Another cell plate was prepared and the signal value on the day of dosing was read as the maximum value (Max value in the equation below) to participate in the data analysis. 20 μL of chemiluminescent cell viability assay reagent was added to each well of this cell plate, which was incubated at room temperature for 10 minutes to stabilize the luminescence signal. The multi-label reader was used for reading.
Data analysis: the equation (Sample-Min)/(Max-Min)*100% was used to convert the original data into the inhibition rate, the IC50 value can be obtained by curve fitting of four-parameters (“log(inhibitor) vs. response—Variable slope” mode in GraphPad Prism)).

[2] = tested on: MC38 mouse colon cancer transplanted tumor model; test: In vivo pharmacodynamic study on MC38 mouse colon cancer transplanted tumor model; design: species or system C57BL/6 mice; details: compound 6 hydrochloride 1.5 mg/kg oral once a day, PD-1 mAb 5 mg/kg i.p. twice a week
Description: The purpose of this experiment was to evaluate the in vivo efficacy of the compounds of the present disclosure on MC38 mouse colon cancer transplanted tumor model.
Name: MC38 (Mouse Colon Cancer Cell)
Cell culture: 1640 medium containing 10% fetal bovine serum was used as culture medium, and the culture condition was 37° C., 5% carbon dioxide. The passage ratio was 1:2 to 1:3, the passage was performed 2-3 times per week.
0.1 mL (2×10^5 cells) of cells were subcutaneously inoculated into the right back of each mouse. On the same day, the animals were randomly grouped according to their body weight. […]
The experimental indicator is to investigate whether the tumor growth was inhibited, delayed or cured. Tumor diameters were measured with a vernier caliper twice a week. The tumor volume was calculated by the formula: V=0.5a×b^2, a and b respectively represent the long and short diameters of the tumor.
The efficacy of the compound was evaluated by relative tumor growth rate T/C (%). […] The relative tumor volume (RTV) was calculated based on the results of tumor measurement, the calculation formula was: RTV=Vt/V0, wherein V0 was the average tumor volume measured at the time of grouping administration (i.e., do), Vt is the average tumor volume measured at a single time, TRTV and CRTV were calculated from the data on the same day.

[3] = target: human LSD1 (Homo sapiens, UniProt O60341); test: In vitro enzyme activity screening against LSD1 (HRP/Amplex Red fluorescence coupling enzyme method); format: biochemical; details: human LSD1, histone H3K4me peptide substrate 20 μM
Description: The purpose of this test was to detect the in vitro inhibitory activity of the compounds against LSD1. The enzyme used in this test was human LSD1, the standard substrate was histone H3K4me peptide (20 μM), the fluorescence coupling enzyme method was used to determine the activity of the compound by combining horseradish peroxidase (HRP) and fluorescent reagent Amplex Red to detect the H2O2 generation as a result of the reaction of LSD1. Compounds were tested in 10-dose IC50 mode with a 3-fold serial dilution starting at 10 μM. The enzyme and […] to start the reaction. Fluorescence detector: Envision, excitation wavelength: Ex/Em=530/590 […]

[4] = tested on: NCI-H1417 cells; test: Antiproliferation activity on NCI-H1417 cells (CellTiter-Glo, 10 days); format: cell-based, human; details: incubated for 10 days
Description: Experimental purpose: to detect the antiproliferation activity of the compounds on NCI-H1417 cells.
Experimental materials: RPMI 1640 culture medium, fetal bovine serum, Promega CellTiter-Glo reagent. NCI-H1417 cell line purchased from ATCC. Envision multi-label reader (PerkinElmer).
Experimental method: the compounds were dissolved to 10 mM, then the compounds were diluted 5 times with DMSO in a compound plate, the compounds were diluted 3-fold with Bravo from a starting concentration of 2 mM to the 10th concentration, 250 nL of the solutions were transferred to the upper and lower duplicate wells on a blank 384 cell plate by Echo transfer plate, cell suspension of per well/1000 cells/50 μL was added to the transferred 250 nL DMSO/compound, the compounds were diluted 200-fold, i.e., the initial action concentration was 10 μM. The cell plate was placed in a carbon dioxide incubator and incubated for 10 days. 25 μL of Promega CellTiter-Glo reagent was added to each well on the cell plate and was shaken at room temperature for 10 minutes to stabilize the luminescence signal. Readings were performed by PerkinElmer Envision multi-label analyzer.
Data analysis: the equation (Max-Ratio)/(Max-Min)*100% was used to convert the original data into the inhibition rate, the value of IC50 can be obtained by curve fitting of four-parameters (the 205 mode in XLFITS, iDBS).

- IC50 [1]: 14.7 nM
- IC50 [3]: 329 nM
- IC50 [4]: 9.11 nM
Compound: O=C(O)c1ccc(CN2CCC3(CC2)CC(N[C@@H]2C[C@H]2c2ccccc2)CO3)cc1 (some centres unmarked) [Hydrochloride of the compound 6]
- Tumor volume (28th day) ([2]; C57BL/6 mice, 28th day after administration): 1653 ± 893 mm^3
- T/C ([2]; relative tumor growth rate, 28th day): 92%
